In data set [1] the target is AMPA receptor. Nature of the data set: In vitro receptor binding assay ([^3H]perampanel, Ki value measurement). Set-up: species or system rat (Sprague-Dawley). The settings on record: rat forebrain membranes, 90 min at 4° C., Scatchard analysis. How it is done: Homogenate of forebrains of rats (Sprague-Dawley) was prepared in ice-cold solution containing 0.32 M sucrose and 0.1 mM EGTA (pH 7.4). Homogenate was centrifuged in 1000 g for 10 min and supernatant was collected. This supernatant was centrifuged in 30000 g for 20 min. Precipitate was suspended in 1 mM EGTA/Tris buffer (pH 8.0) by sonication, subjected osmotic lysis on ice for 10 min and centrifuged in 30000 g for 20 min. This procedure was conducted twice. Precipitate was suspended in 50 mM Tris HCl buffer (pH 7.4) by sonication and centrifuged in 30000 g for 20 min. This procedure was conducted three times. Precipitate was suspended in 50 mM Tris HCl buffer (pH 7.4) by sonication and stocked at −80° C. On the day of binding assay, stocked solution was suspended in 50 mM Tris HCl buffer (pH 7.4) by sonication and centrifuged in 30000 g for 20 min. This procedure was conducted three times. Precipitate was suspended in 50 mM Tris-HCl buffer (pH 7.4) by sonication and used for binding assay.
Receptor solution was re-suspended in binding buffer (50 mM Tris-HCl, pH 7.4) to a final concentration of 0.24 mg tissue eq./assay. The incubation time for [^3H]perampanel on AMPA receptor was 90 min at 4° C. After incubation, membranes were filtered onto GF/B filter presoaked with 0.3% PEI and washed three times with ice-cold wash buffer (same as binding buffer). Each filter was placed in a vial and 6 mL of liquid scintillator reagent (Hionic-Fluor; PerkinElmer Life & Analytical Sciences) were added. Radioactivity was counted (1 min) in a liquid scintillation counter (LSC-6100, Hitachi Aloka Medical, Ltd.).
Saturation isotherms were determined by addition of various concentrations of [^3H]perampanel (1-2000 nM). Nonspecific bindings for [^3H]perampanel was measured in the presence of 15 μM unlabeled compounds. Ki value was calculated by Scatchard analysis of saturation isotherm experiment.

The test system of data set [2] is AMPA receptor. The following applies: in vivo PET, rat; cited from earlier work.
The subject of data set [3] is AMPA receptor. Description: In vivo PET blocking study in monkey. Set-up: species or system Rhesus monkey. The following applies: i.v. pretreatment 0.02 to 0.1 mg/kg, 15 min prior to radioligand (Example 4); CTX, HIP, CER, THA, STR. How it is done: FIG. 4. Rhesus monkey PET blocking study of the compound of Example 4. In vivo area under time-radioactivity curves of to the region of interests (CTX, HIP, cerebellum (CER), thalamus (THA), striatum (STR)) in the absence (control) and blockade by pretreatment with the unlabeled compound. Radioactivity is expressed as percentage of standardized uptake value (% SUV) and integrated radioactivity of the specific binding versus reference region (brain stem; BS) from 0 to 40 min during the PET scan.
For the PET blocking study, unlabeled compound (Reference Example 9, 0.1 mg/kg/5 mL to 0.02 mg/kg/5 mL of saline with 10% DMSO, 3 doses) was intravenously administrated via the crural vein as a single slow bolus over 10 min, 15 min prior to radioligand administration. All PET scans were acquired from the same two monkeys (n=2).
Area under time-radioactivity curves of to the region of interests (CTX, HIP, cerebellum (CER), thalamus (THA), STR) in the absence (control) and blockade by pretreatment with Reference Example 9. Radioactivity is expressed as percentage of standardized uptake value (% SUV) and integrated radioactivity from 0 to 40 min during the PET scan.

Here are results for five compounds from patent US20160045625A1, “[11C] AND [18F] LABELED 1,3-DIPHENYL-5-(PYRIMIDIN-2-YL)-PYRIDIN-2(1H)-ONE DERIVATIVES AND THEIR USE FOR PET IMAGING OF THE AMPA RECEPTOR” (EISAI R&D MANAGEMENT CO., LTD., priority 2013, published 2016).

One may read the Ki as a measure of affinity in units of concentration, obtained from inhibition or displacement. Take `O=c1c(-c2ccccc2F)cc(-c2ncccn2)cn1-c1cccc(CF)c1` [Reference Example 22, 3-(2-fluorophenyl)-1-(3-(fluoromethyl)phenyl)-5-(pyrimidin-2-yl)pyridin-2(1H)-one]: in data set [1], the affinity corresponds to a Ki of 22 nM. In the case of `COc1cc2c(cc1O[11CH3])C(c1ccc(Cl)cc1)N(C(C)=O)CC2` (stereo not shown) [N-acetyl-1-(4-chlorophenyl)-6-methoxy-7-[^11C]methoxy-1,2,3,4-tetrahydroisoquinoline], in data set [2], the “clearance from the CNS” value is “rapid clearance from the CNS” and the specific binding result is listed as “low specific binding”. As for `N#Cc1ccccc1-c1cc(-c2ncccn2)cn(-c2ccc(F)c(N)c2)c1=O` [Reference Example 19, 2-(1-(3-amino-4-fluorophenyl)-2-oxo-5-(pyrimidin-2-yl)-1,2-dihydropyridin-3-yl)benzonitrile], affinity in data set [1] was put at a Ki of 5 nM. As to `N#Cc1ccccc1-c1cc(-c2ncccn2)cn(-c2cccc(F)c2)c1=O` [Reference Example 15, 2-(1-(3-fluorophenyl)-2-oxo-5-(pyrimidin-2-yl)-1,2-dihydropyridin-3-yl)benzonitrile], the affinity in data set [1] corresponds to a Ki of 20 nM.

Regarding `CNc1cccc(-n2cc(-c3ncccn3)cc(-c3ccccc3C#N)c2=O)c1` [Reference Example 9, 2-(1-(3-(methylamino)phenyl)-2-oxo-5-(pyrimidin-2-yl)-1,2-dihydropyridin-3-yl)benzonitrile], the “radioactivity (area under time-radioactivity curves, % SUV, 0 to 40 min) compared to control” value in data set [3] is “markedly reduced the radioactivity in dose dependent manner”. The compound also registered a Ki in data set [1] of 10 nM.
